Measurements as given in patent US9302999B2, “Substituted triazoles as herbicides” (E. I. DU PONT DE NEMOURS AND COMPANY, priority 2012, dated 2016).

Key:
Assay type in all cases: in vivo
[1] = test system: barnyardgrass (Echinochloa crus-galli); assay: Test A pre-/postemergence: barnyardgrass; details: for Barnyardgrass plant response rating: Postemergence; for Plant response rating, Barnyardgrass: Preemergence
How it was run: (§1)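 Plants in loam–sand blend were treated with test chemicals in non-phytotoxic solvent with surfactant, either as preemergence directed soil spray or postemergence at 2–10 cm, one- to two-leaf stage. After about ten days in greenhouse, injury was rated visually against untreated controls on a 0–100 scale (100 = complete control).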

[2] = test system: morningglory (Ipomoea spp.); assay: Test A pre-/postemergence: morningglory; details: for Morningglory plant response rating: visual rating on 0 to 100 scale (0 no effect, 100 complete control), approximately ten days
How it was run: as §1

[3] = test system: wheat (Triticum aestivum); assay: Test A pre-/postemergence: wheat; details: for Wheat plant response rating: visual rating on 0 to 100 scale (0 no effect, 100 complete control), approximately ten days
How it was run: as §1

corn (Zea mays) = assay: Test A pre-/postemergence: corn; details: for Corn plant response rating: Postemergence; for Plant response rating, Corn: Preemergence
How it was run: as §1

[4] = test system: blackgrass (Alopecurus myosuroides); assay: Test C pre-/postemergence: blackgrass
How it was run: (§2)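 Visual injury scored 0–100 (100 = complete control) against untreated controls after 13–15 greenhouse days. Surfactant-containing solvent formulations applied either to soil after sowing (loam/sand) or over 1- to 4-leaf plants, 2–18 cm tall.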

[5] = test system: ryegrass, Italian (Italian ryegrass, Lolium multiflorum); assay: Test C pre-/postemergence: ryegrass, Italian
How it was run: as §2

[6] = test system: large crabgrass (Digitaria sanguinalis); assay: Test C pre-/postemergence: large crabgrass
How it was run: as §2

[7] = test system: johnsongrass (Sorghum halepense); assay: Test C pre-/postemergence: johnsongrass
How it was run: as §2

[8] = test system: nutsedge, yellow (yellow nutsedge, Cyperus esculentus); assay: Test C pre-/postemergence: nutsedge, yellow
How it was run: as §2

[9] = test system: pigweed (Amaranthus retroflexus); assay: Test C pre-/postemergence: pigweed
How it was run: as §2

soybean (Glycine max) = assay: Test C pre-/postemergence: soybean
How it was run: as §2

[10] = 125 g ai/ha, 0 to 100 scale, 0 is no effect, 100 is complete control
[11] = 500 g ai/ha, visual rating on 0 to 100 scale (0 no effect, 100 complete control), approximately ten days
[12] = 125 g ai/ha, 0 to 100 scale where 0 is no effect and 100 is complete control
[13] = 500 g ai/ha, 0 to 100 scale (0 no effect, 100 complete control)
[14] = Postemergence, 125 g ai/ha, 0 to 100 scale, 0 is no effect, 100 is complete control
[15] = Preemergence, 125 g ai/ha, 0 to 100 scale where 0 is no effect and 100 is complete control
[16] = Preemergence, 500 g ai/ha, 0 to 100 scale (0 no effect, 100 complete control)
[17] = Postemergence, 31 g ai/ha, scale 0 to 100 (0 no effect, 100 complete control)
[18] = Postemergence, 62 g ai/ha, scale 0 to 100 (0 no effect, 100 complete control)
[19] = Postemergence, 125 g ai/ha, scale 0 to 100, 0 no effect, 100 complete control
[20] = Postemergence, 250 g ai/ha, scale 0 to 100
[21] = Preemergence, 31 g ai/ha, scale of 0 to 100, 0 is no effect, 100 is complete control
[22] = Preemergence, 62 g ai/ha, scale of 0 to 100, 0 is no effect, 100 is complete control
[23] = Preemergence, 125 g ai/ha, scale 0 to 100, 0 no effect, 100 complete control
[24] = Preemergence, 250 g ai/ha, scale 0 to 100, 0 no effect, 100 complete control

COc1nn(-c2ccc(C(F)(F)F)cc2)nc1Cc1ccnc(C(F)F)c1 [Compound 138]
Barnyardgrass plant response rating [1, 10]: 90
Barnyardgrass plant response rating [1, 11]: 90
Plant response rating, Barnyardgrass [1, 12]: 90
Plant response rating, Barnyardgrass [1, 13]: 100
Plant response rating, Morningglory [2, 14]: 100
Morningglory plant response rating ([2]; Postemergence, 500 g ai/ha): 100
Plant response rating, Morningglory [2, 15]: 70
Plant response rating, Morningglory [2, 16]: 90
Plant response rating, Wheat [3, 14]: 50
Wheat plant response rating ([3]; Postemergence, 500 g ai/ha): 60
Plant response rating, Wheat [3, 15]: 30
Plant response rating, Wheat [3, 16]: 60
Corn plant response rating (corn (Zea mays); [10]): 50
Corn plant response rating (corn (Zea mays); [11]): 70
Plant response rating, Corn (corn (Zea mays); [12]): 30
Plant response rating, Corn (corn (Zea mays); [13]): 60
Plant response rating, Blackgrass [4, 17]: 20
Plant response rating, Blackgrass [4, 18]: 40
Plant response rating, Blackgrass [4, 19]: 40
Plant response rating, Blackgrass [4, 20]: 45
Plant response rating, Blackgrass [4, 21]: 90
Plant response rating, Blackgrass [4, 22]: 95
Plant response rating, Blackgrass [4, 23]: 95
Plant response rating, Blackgrass [4, 24]: 95
Plant response rating, Ryegrass, Italian [5, 17]: 40
Plant response rating, Ryegrass, Italian [5, 18]: 55
Plant response rating, Ryegrass, Italian [5, 19]: 60
Plant response rating, Ryegrass, Italian [5, 20]: 75
Plant response rating, Ryegrass, Italian [5, 21]: 10
Plant response rating, Ryegrass, Italian [5, 22]: 40
Plant response rating, Ryegrass, Italian [5, 23]: 70
Plant response rating, Ryegrass, Italian [5, 24]: 90
Plant response rating, Crabgrass, Large [6, 17]: 45
Plant response rating, Crabgrass, Large [6, 18]: 50
Plant response rating, Crabgrass, Large [6, 19]: 55
Plant response rating, Crabgrass, Large [6, 20]: 95
Plant response rating, Crabgrass, Large [6, 21]: 98
Plant response rating, Crabgrass, Large [6, 22]: 100
Plant response rating, Crabgrass, Large [6, 23]: 100
Plant response rating, Crabgrass, Large [6, 24]: 100
Plant response rating, Johnsongrass [7, 17]: 45
Plant response rating, Johnsongrass [7, 18]: 45
Plant response rating, Johnsongrass [7, 19]: 45
Plant response rating, Johnsongrass [7, 20]: 95
Plant response rating, Johnsongrass [7, 21]: 45
Plant response rating, Johnsongrass [7, 22]: 85
Plant response rating, Johnsongrass [7, 23]: 98
Plant response rating, Johnsongrass [7, 24]: 100
Plant response rating, Nutsedge, Yellow [8, 17]: 10
Plant response rating, Nutsedge, Yellow [8, 18]: 10
Plant response rating, Nutsedge, Yellow [8, 19]: 15
Plant response rating, Nutsedge, Yellow [8, 20]: 20
Plant response rating, Nutsedge, Yellow [8, 21]: 5
Plant response rating, Nutsedge, Yellow [8, 23]: 5
Plant response rating, Nutsedge, Yellow [8, 24]: 5
Plant response rating, Pigweed [9, 17]: 98
Plant response rating, Pigweed [9, 18]: 98
Plant response rating, Pigweed [9, 19]: 98
Plant response rating, Pigweed [9, 20]: 100
Plant response rating, Pigweed [9, 21]: 98
Plant response rating, Pigweed [9, 22]: 100
Plant response rating, Pigweed [9, 23]: 100
Plant response rating, Pigweed [9, 24]: 100
Plant response rating, Soybean (soybean (Glycine max); [17]): 55
Plant response rating, Soybean (soybean (Glycine max); [18]): 70
Plant response rating, Soybean (soybean (Glycine max); [19]): 80
Plant response rating, Soybean (soybean (Glycine max); [20]): 80
Plant response rating, Soybean (soybean (Glycine max); [21]): 5
Plant response rating, Soybean (soybean (Glycine max); [22]): 20
Plant response rating, Soybean (soybean (Glycine max); [24]): 30

COc1nn(-c2cccc(F)c2)nc1Cc1ccnc(C(F)(F)F)c1 [Compound 139]
Barnyardgrass plant response rating [1, 10]: 90
Barnyardgrass plant response rating [1, 11]: 100
Plant response rating, Barnyardgrass [1, 12]: 80
Plant response rating, Barnyardgrass [1, 13]: 100
Plant response rating, Morningglory [2, 14]: 80
Morningglory plant response rating ([2]; Postemergence, 500 g ai/ha): 100
Plant response rating, Morningglory [2, 15]: 50
Plant response rating, Morningglory [2, 16]: 70
Plant response rating, Wheat [3, 14]: 30
Wheat plant response rating ([3]; Postemergence, 500 g ai/ha): 40
Plant response rating, Wheat [3, 15]: 10
Plant response rating, Wheat [3, 16]: 50
Corn plant response rating (corn (Zea mays); [10]): 30
Corn plant response rating (corn (Zea mays); [11]): 50
Plant response rating, Corn (corn (Zea mays); [12]): 10
Plant response rating, Corn (corn (Zea mays); [13]): 30
Plant response rating, Blackgrass [4, 17]: 35
Plant response rating, Blackgrass [4, 18]: 40
Plant response rating, Blackgrass [4, 19]: 70
Plant response rating, Blackgrass [4, 20]: 70
Plant response rating, Blackgrass [4, 21]: 45
Plant response rating, Blackgrass [4, 22]: 90
Plant response rating, Blackgrass [4, 23]: 90
Plant response rating, Blackgrass [4, 24]: 90
Plant response rating, Ryegrass, Italian [5, 17]: 25
Plant response rating, Ryegrass, Italian [5, 18]: 30
Plant response rating, Ryegrass, Italian [5, 19]: 30
Plant response rating, Ryegrass, Italian [5, 20]: 40
Plant response rating, Ryegrass, Italian [5, 21]: 35
Plant response rating, Ryegrass, Italian [5, 22]: 60
Plant response rating, Ryegrass, Italian [5, 24]: 90
Plant response rating, Crabgrass, Large [6, 17]: 40
Plant response rating, Crabgrass, Large [6, 18]: 45
Plant response rating, Crabgrass, Large [6, 19]: 55
Plant response rating, Crabgrass, Large [6, 20]: 80
Plant response rating, Crabgrass, Large [6, 21]: 100
Plant response rating, Crabgrass, Large [6, 22]: 100
Plant response rating, Crabgrass, Large [6, 23]: 100
Plant response rating, Crabgrass, Large [6, 24]: 100
Plant response rating, Johnsongrass [7, 17]: 30
Plant response rating, Johnsongrass [7, 18]: 50
Plant response rating, Johnsongrass [7, 19]: 80
Plant response rating, Johnsongrass [7, 20]: 80
Plant response rating, Johnsongrass [7, 21]: 15
Plant response rating, Johnsongrass [7, 22]: 45
Plant response rating, Johnsongrass [7, 23]: 100
Plant response rating, Johnsongrass [7, 24]: 100
Plant response rating, Nutsedge, Yellow [8, 17]: 10
Plant response rating, Nutsedge, Yellow [8, 18]: 10
Plant response rating, Nutsedge, Yellow [8, 19]: 10
Plant response rating, Nutsedge, Yellow [8, 20]: 25
Plant response rating, Nutsedge, Yellow [8, 21]: 0
Plant response rating, Nutsedge, Yellow [8, 22]: 0
Plant response rating, Nutsedge, Yellow [8, 23]: 0
Plant response rating, Nutsedge, Yellow [8, 24]: 5
Plant response rating, Pigweed [9, 17]: 95
Plant response rating, Pigweed [9, 18]: 98
Plant response rating, Pigweed [9, 19]: 98
Plant response rating, Pigweed [9, 20]: 98
Plant response rating, Pigweed [9, 21]: 98
Plant response rating, Pigweed [9, 22]: 98
Plant response rating, Pigweed [9, 23]: 100
Plant response rating, Pigweed [9, 24]: 100
Plant response rating, Soybean (soybean (Glycine max); [17]): 40
Plant response rating, Soybean (soybean (Glycine max); [18]): 40
Plant response rating, Soybean (soybean (Glycine max); [19]): 45
Plant response rating, Soybean (soybean (Glycine max); [20]): 45
Plant response rating, Soybean (soybean (Glycine max); [21]): 5
Plant response rating, Soybean (soybean (Glycine max); [22]): 15
Plant response rating, Soybean (soybean (Glycine max); [23]): 25
Plant response rating, Soybean (soybean (Glycine max); [24]): 25
